Measurements from patent publication US12582645B2, “Chemokine CXCR4 receptor modulators and uses related thereto” (Emory University, priority 2017, dated 2026).

The compounds below were run against T1, CXCR4 (Homo sapiens, UniProt P61073) (assay: CXCR4-CEM calcium flux assay, antagonist mode (inhibition of SDF-1α-induced calcium flux)). Conditions: CCRF-CEM cells expressing endogenous CXCR4, stimulated with 4 nM SDF-1α, read-out: CXCR4 Ca^2+ Flux IC50.
T1 construct: Human T lymphoblast cells (CCRF-CEM) expressing endogenous CXCR4 receptors; endogenous in cells; host or cells: CCRF-CEM (human T lymphoblast cells)
Assay type: cell-based
Description: CXCR4-CEM Calcium Flux Assays
Exemplary compounds of the invention were tested for their ability to induce or inhibit calcium flux in CCRF-CEM cells, a human cell line that endogenously expresses CXCR4. Activation of CXCR4 stimulates G protein signaling which, in CCRF-CEM cells, causes a series of downstream events that leads to the release of intracellular calcium stores, or calcium flux. Calcium ion concentrations can be easily measured using a wide variety of […] calcium indicators and, as a result, calcium flux assays are commonly employed methods for measuring G protein-coupled receptor (GPCR) activity. Because the therapeutic potential of CXCR4 antagonists as anti-cancer agents likely relies on their ability to inhibit CXCR4-mediated G protein signaling, this assay was utilized as a first-pass measure of inhibitor potency.
The cells were then equilibrated to room temperature for 30 minutes before assay. […] For “antagonist mode” assessment, the cells are subsequently incubated for 25 minutes at room temperature. SDF-1α (R&D System Cat #350-NS/CF) was then added at a final concentration of 4 nM to stimulate the cells. Inhibition of SDF-1α-induced calcium flux was monitored by FDSS6000 for 90 seconds.
After correcting for background, EC50 values were determined. […] Inhibition data for the test compound over a range of concentrations was plotted as percentage inhibition of the test compound as compared to an internal control compound.

T1 sequence (P61073 whole entry): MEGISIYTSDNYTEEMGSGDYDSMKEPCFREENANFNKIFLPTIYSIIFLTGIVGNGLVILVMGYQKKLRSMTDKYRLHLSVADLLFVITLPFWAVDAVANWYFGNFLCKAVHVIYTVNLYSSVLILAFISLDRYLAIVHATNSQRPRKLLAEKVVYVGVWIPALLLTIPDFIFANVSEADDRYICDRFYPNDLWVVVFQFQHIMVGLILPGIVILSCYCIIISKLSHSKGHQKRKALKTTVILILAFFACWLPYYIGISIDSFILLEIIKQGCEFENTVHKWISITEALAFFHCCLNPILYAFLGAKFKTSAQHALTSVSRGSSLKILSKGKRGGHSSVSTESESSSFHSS

IC50 [nM] | SMILES
476 | CN(CC1Cc2ncccc2CN1)[C@H]1CCCc2cccnc21 (single isomer, unassigned) [EMU174 (Stereoisomer 2)]
35.9 | CN(C)C1CCN(c2cccc3c2C[C@H](CN(C)[C@H]2CCCc4cccnc42)NC3)CC1 [EMU228]
171 | CN1CCN(c2cccc3c2CC(CN(C)[C@H]2CCCc4cccnc42)N(C)C3)CC1 (stereo partly shown) [EMU090]
286 | c1ccc(CNCc2ccc(CN(C[C@H]3Cc4ccccc4CN3)[C@H]3CCCc4cccnc43)cc2)nc1 [EMU220, (S)—N-(4-(((pyridin-2-ylmethyl)amino)methyl)benzyl)-N—(((R)-1,2,3,4-tetrahydroisoquinolin-3-yl)methyl)-5,6,7,8-tetrahydroquinolin-8-amine]
16.9 | CC(C)N1CCN(c2cccc3c2C[C@H](CN(C)[C@H]2CCCc4cccnc42)NC3)CC1 [EMU197]
45.3 | c1cnc2c(c1)CCC[C@@H]2N(CCCN1CCNCC1)Cc1nc2ccccc2[nH]1 [EMU185, (S)—N-((1H-benzo[d]imidazole-2yl)methyl)-N-(3-(piperazine-1yl)propyl)-5,6,7,8-tetrahydroquinolin-8-amine]
28.3 | C/C(CN)=C(\F)CN(CC1Cc2ccccc2CN1)[C@H]1CCCc2cccnc21 (stereo partly shown) [EMU140]
47.4 | CN1CCN(Nc2cccc3c2C[C@H](CN(C)[C@H]2CCCc4cccnc42)NC3)CC1 [EMU229]
9.56 | CN1C[C@@H]2CN(c3cccc4c3C[C@H](CN(C)C3CCCc5cccnc53)NC4)C[C@@H]2C1 (stereo partly shown) [EMU227]
14.1 | C[C@@H]1CN(c2cccc3c2C[C@H](CN(C)[C@H]2CCCc4cccnc42)NC3)C[C@H](C)N1C [EMU198]
6270 | CN1CCN(c2ccccc2CN2CCNC(CN(C)[C@H]3CCCc4cccnc43)C2)CC1 (stereo partly drawn) [EMU070, (8S)—N-methyl-N-((4-(2 (4-methylpiperazin-1-yl)benzyl)piperazin-2-yl)methyl)-5,6,7,8-tetrahydroquinolin-8-amine]
90.3 | c1ccc2c(c1)CN[C@@H](CN(Cc1ccc(CNC3CCOCC3)cc1)[C@H]1CCCc3cccnc31)C2 [EMU217, (S)—N-(4-(((tetrahydro-2H-pyran-4-yl)amino)methyl)benzyl)-N—(((R)-1,2,3,4-tetrahydroisoquinolin-3-yl)methyl)-5,6,7,8-tetrahydroquinolin-8-amine]
134 | c1ccc2c(c1)CN[C@@H](CN(Cc1ccc(CNCc3ccncc3)cc1)[C@H]1CCCc3cccnc31)C2 [EMU218, (S)—N-(4-(((pyridin-4-ylmethyl)amino)methyl)benzyl)-N—(((R)-1,2,3,4-tetrahydroisoquinolin-3-yl)methyl)-5,6,7,8-tetrahydroquinolin-8-amine]
17000 | NCc1ccc(CN(CC2Cc3ncccc3CN2)[C@H]2CCCc3cccnc32)cc1 (single isomer, unassigned) [EMU193]
18.1 | CN(CC1Cc2c(cccc2NC2CCNCC2)CN1)[C@H]1CCCc2cccnc21 (single isomer, unassigned) [EMU044 (Stereoisomer 1)]
503 | NC/C=C\CN(CC1Cc2ncccc2CN1)[C@H]1CCCc2cccnc21 (single isomer, unassigned) [EMU142 (Stereoisomer 2)]
25.2 | CN1CCN(c2cccc3c2C[C@H](CN2CCC[C@H]4CCc5cccnc5[C@H]42)NC3)CC1 [EMU232, (4aR,10bS)-1-(((R)-5-(4-methylpiperazin-1-yl)-1,2,3,4-tetrahydroisoquinolin-3-yl)methyl)-1,2,3,4,4a,5,6,10b-octahydro-1,10-phenanthroline]
64.6 | CC1(C)CCC(NC/C=C/CN(C[C@H]2Cc3ccccc3CN2)[C@H]2CCCc3cccnc32)CC1 [EMU153, (E)-N1-(4,4-dimethylcyclohexyl)-N4-(((R)-1,2,3,4-tetrahydroisoquinolin-3-yl)methyl)-N4-((S)-5,6,7,8-tetrahydroquinolin-8-yl)but-2-ene-1,4-diamine]
33.7 | NC1CCC(N(C[C@H]2Cc3ccccc3CN2)[C@H]2CCCc3cccnc32)CC1 (single isomer, unassigned) [EMU073 (Stereoisomer 1)]
